Source: the supplement of paper PMC10307832

Legend:
Assay in all cases: relative viability (nuclei count vs DMSO), 5 days (fraction); higher = more cells survive
[1] = compound: CCc1cnn2c(NCc3ccc[n+]([O-])c3)cc(N3CCCC[C@H]3CCO)nc12 [Dinaciclib] + CC(=O)Nc1cccc(-n2c(=O)n(C3CC3)c(=O)c3c(Nc4ccc(I)cc4F)n(C)c(=O)c(C)c32)c1 [Trametinib] (partner 0.02 µM)
Method in brief: (§1)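 Relative viability divides the nuclei count in treated wells by that in vehicle wells. Lung cancer cell lines were seeded in 1536-well plates, dosed by pin tool the next day, and fixed and stained after 5 days in one step with final 0.05% Triton X-100, 1% formaldehyde and 1 ug/ml Hoechst. Dosing was a single drug or a fixed anchor-drug dose plus five library-drug doses (not always all listed) in √10 steps, and values are medians of duplicate plates imaged at 4×.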

[2] = compound: CCc1cnn2c(NCc3ccc[n+]([O-])c3)cc(N3CCCC[C@H]3CCO)nc12 [Dinaciclib] + C[C@@H](Oc1cc(-c2cnn(C3CCNCC3)c2)cnc1N)c1c(Cl)ccc(F)c1Cl [Crizotinib] (partner 1 µM)
Method in brief: as §1

[3] = compound: CCc1cnn2c(NCc3ccc[n+]([O-])c3)cc(N3CCCC[C@H]3CCO)nc12 [Dinaciclib] + C[C@]1(O)C[C@@H](c2nc(-c3ccc4ccc(-c5ccccc5)nc4c3)c3c(N)nccn32)C1 [Linsitinib] (partner 1 µM)
Method in brief: as §1

[4] = compound: CCc1cnn2c(NCc3ccc[n+]([O-])c3)cc(N3CCCC[C@H]3CCO)nc12 [Dinaciclib] + Nc1nc2[nH]cc(CCc3ccc(C(=O)N[C@@H](CCC(=O)O)C(=O)O)cc3)c2c(=O)[nH]1 [Pemetrexed] (partner 0.2 µM)
Method in brief: as §1

[5] = compound: CCc1cnn2c(NCc3ccc[n+]([O-])c3)cc(N3CCCC[C@H]3CCO)nc12 [Dinaciclib] + O=C(c1cc(Cc2n[nH]c(=O)c3ccccc23)ccc1F)N1CCN(C(=O)C2CC2)CC1 [Olaparib] (partner 8 µM)
Method in brief: as §1

Cell Line | relative viability ([1]; first compound 0.009487 µM) | relative viability ([1]; first compound 0.03 µM) | relative viability ([1]; first compound 0.09487 µM) | relative viability ([1]; first compound 0.3 µM) | relative viability ([2]; first compound 0.009487 µM) | relative viability ([2]; first compound 0.03 µM) | relative viability ([2]; first compound 0.09487 µM) | relative viability ([2]; first compound 0.3 µM) | relative viability ([3]; first compound 0.009487 µM) | relative viability ([3]; first compound 0.03 µM) | relative viability ([3]; first compound 0.09487 µM) | relative viability ([3]; first compound 0.3 µM) | relative viability ([4]; first compound 0.009487 µM) | relative viability ([4]; first compound 0.03 µM) | relative viability ([4]; first compound 0.09487 µM) | relative viability ([4]; first compound 0.3 µM) | relative viability ([5]; first compound 0.009487 µM) | relative viability ([5]; first compound 0.03 µM) | relative viability ([5]; first compound 0.09487 µM) | relative viability ([5]; first compound 0.3 µM)
NCI-H1666 | 0.731 | 0.431 | 0.57 | 0.49 | 0.742 | 0.194 | 0.202 | 0.271 | 0.656 | 0.198 | 0.209 | 0.216 | 0.933 | 0.399 | 0.504 | 0.491 | 0.774 | 0.553 | 0.484 | 0.488
NCI-H1734 | 0.595 | 0.278 | 0.146 | 0.136 | 0.464 | 0.163 | 0.1 | 0.12 | 0.813 | 0.328 | 0.158 | 0.132 | 0.417 | 0.147 | 0.149 | 0.136 | 0.468 | 0.117 | 0.113 | 0.12
NCI-H1755 | 0.786 | 0.46 | 0.225 | 0.202 | 0.8 | 0.289 | 0.147 | 0.147 | 0.991 | 0.429 | 0.166 | 0.171 | 0.397 | 0.272 | 0.204 | 0.261 | 0.865 | 0.284 | 0.206 | 0.215
NCI-H1792 | 0.432 | 0.361 | 0.0776 | 0.0462 | 0.994 | 0.747 | 0.184 | 0.0753 | 0.559 | 0.317 | 0.069 | 0.0552 | 0.561 | 0.14 | 0.0501 | 0.0374 | 0.425 | 0.185 | 0.0516 | 0.0374
NCI-H1915 | 0.343 | 0.225 | 0.114 | 0.0978 | 0.706 | 0.117 | 0.103 | 0.102 | 1.06 | 0.279 | 0.136 | 0.127 | 0.471 | 0.439 | 0.11 | 0.0872 | 0.202 | 0.108 | 0.112 | 0.0974
NCI-H1944 | 0.462 | 0.161 | 0.152 | 0.144 | 1.14 | 0.143 | 0.136 | 0.126 | 1.36 | 0.613 | 0.192 | 0.225 | 0.712 | 0.119 | 0.14 | 0.136 | 0.395 | 0.126 | 0.182 | 0.108
NCI-H1975 | 0.343 | 0.187 | 0.134 | 0.0985 | 0.765 | 0.222 | 0.139 | 0.129 | 0.632 | 0.265 | 0.13 | 0.141 | 0.275 | 0.288 | 0.146 | 0.16 | 0.702 | 0.26 | 0.151 | 0.114
NCI-H1993 | 0.632 | 0.419 | 0.511 | 0.479 | 0.735 | 0.766 | – | 0.642 | 0.69 | 0.586 | – | 0.518 | 0.592 | 0.452 | 0.484 | 0.427 | 1.12 | 0.755 | 0.371 | 0.424
NCI-H2009 | 0.288 | 0.0748 | 0.0773 | 0.0564 | 1.13 | 0.0796 | 0.0746 | 0.0749 | 1.12 | 0.283 | 0.105 | 0.104 | 0.977 | 0.459 | 0.0817 | 0.0842 | 0.584 | 0.254 | 0.0848 | 0.0797
NCI-H2023 | 0.382 | 0.078 | 0.0799 | 0.0821 | 0.93 | 0.0702 | 0.05 | 0.0622 | 0.442 | 0.0999 | 0.0724 | 0.0763 | 0.165 | 0.0899 | 0.0697 | 0.0581 | 0.29 | 0.0582 | 0.0542 | 0.0574
NCI-H2085 | 0.439 | 0.259 | 0.187 | 0.183 | 1.02 | 0.313 | 0.208 | 0.236 | 0.94 | 0.188 | 0.176 | 0.202 | 0.916 | 0.279 | 0.211 | 0.217 | 0.838 | 0.321 | 0.257 | 0.263
NCI-H2087 | 0.143 | 0.11 | 0.101 | 0.107 | 1.3 | 0.136 | 0.128 | 0.13 | 0.69 | 0.164 | 0.155 | 0.133 | 0.687 | 0.109 | 0.106 | 0.101 | 0.639 | 0.0883 | 0.0953 | 0.112
NCI-H2126 | 0.53 | 0.41 | 0.165 | 0.175 | 1.01 | 0.565 | 0.213 | 0.215 | 0.692 | 0.555 | 0.197 | 0.207 | 0.695 | 0.495 | 0.198 | 0.192 | 0.89 | 0.449 | 0.186 | 0.169
NCI-H2228 | 0.496 | 0.11 | 0.0915 | 0.116 | 0.526 | 0.178 | 0.135 | 0.103 | 0.715 | 0.466 | 0.109 | 0.13 | 0.309 | 0.152 | 0.0897 | 0.0862 | 0.793 | 0.181 | 0.101 | 0.143
NCI-H2347 | 0.301 | 0.247 | 0.159 | 0.154 | 0.734 | 0.146 | 0.202 | 0.156 | 1.03 | 0.355 | 0.273 | 0.266 | 0.459 | 0.319 | 0.228 | 0.224 | 0.523 | 0.241 | 0.216 | 0.209
NCI-H2405 | 0.676 | 0.236 | 0.233 | 0.203 | 0.772 | 0.224 | 0.201 | 0.209 | 0.989 | 0.25 | 0.262 | 0.235 | 0.803 | 0.247 | 0.213 | 0.209 | 0.654 | 0.242 | 0.225 | 0.23
